Results: US20130231290A1, “METHODS OF DIAGNOSING AND TREATING NEURODEGENERATIVE DISEASES” (DIGNITY HEALTH, priority 2010, published 2013)

Key:
[1] = biological target: T1, α7-containing-nAChRs in nAChR β2 subunit knockout mice (Mus musculus, UniProt P49582); format: cell-based
T1 construct: MS/DB neurons derived from nAChR β2 subunit knock-out mice; endogenous in cells; host or cells: acutely dissociated MS/DB neurons of nAChR β2 knockout mice (C57/Bl6 background)

[2] = biological target: T2, homomeric α7-nAChRs on VTA DAergic neurons (Rattus norvegicus, UniProt Q05941); format: cell-based
T2 construct: native nAChR responses in rat MS/DB or VTA neurons; endogenous in cells; host or cells: acutely dissociated VTA dopaminergic neurons of Wistar rats
T2 sequence (Q05941 23-502): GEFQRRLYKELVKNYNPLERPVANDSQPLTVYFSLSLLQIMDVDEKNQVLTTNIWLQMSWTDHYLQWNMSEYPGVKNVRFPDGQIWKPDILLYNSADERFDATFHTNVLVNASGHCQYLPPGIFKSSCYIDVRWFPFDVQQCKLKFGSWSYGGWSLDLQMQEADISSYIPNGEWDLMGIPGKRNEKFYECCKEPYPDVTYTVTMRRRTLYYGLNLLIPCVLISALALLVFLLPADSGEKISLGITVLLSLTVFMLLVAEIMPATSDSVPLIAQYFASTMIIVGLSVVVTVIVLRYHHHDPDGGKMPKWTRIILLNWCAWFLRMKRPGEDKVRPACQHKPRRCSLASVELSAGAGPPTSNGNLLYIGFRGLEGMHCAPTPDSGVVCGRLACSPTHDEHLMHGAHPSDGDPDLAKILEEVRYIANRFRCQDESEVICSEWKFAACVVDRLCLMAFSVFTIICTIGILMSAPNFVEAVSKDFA

[3] = biological target: α7β2-nAChRs on MS/DB cholinergic neurons (Rattus norvegicus, UniProt P12390+Q05941); assay: Perforated-patch whole-cell recording of nAChR-mediated (choline/ACh-induced) currents in acutely dissociated MS/DB cholinergic neurons; format: cell-based
Sequence of α7β2-nAChRs on MS/DB cholinergic neurons (Rattus norvegicus, UniProt P12390+Q05941) (Q05941 23-502): as above
Sequence of α7β2-nAChRs on MS/DB cholinergic neurons (Rattus norvegicus, UniProt P12390+Q05941) (P12390 25-500): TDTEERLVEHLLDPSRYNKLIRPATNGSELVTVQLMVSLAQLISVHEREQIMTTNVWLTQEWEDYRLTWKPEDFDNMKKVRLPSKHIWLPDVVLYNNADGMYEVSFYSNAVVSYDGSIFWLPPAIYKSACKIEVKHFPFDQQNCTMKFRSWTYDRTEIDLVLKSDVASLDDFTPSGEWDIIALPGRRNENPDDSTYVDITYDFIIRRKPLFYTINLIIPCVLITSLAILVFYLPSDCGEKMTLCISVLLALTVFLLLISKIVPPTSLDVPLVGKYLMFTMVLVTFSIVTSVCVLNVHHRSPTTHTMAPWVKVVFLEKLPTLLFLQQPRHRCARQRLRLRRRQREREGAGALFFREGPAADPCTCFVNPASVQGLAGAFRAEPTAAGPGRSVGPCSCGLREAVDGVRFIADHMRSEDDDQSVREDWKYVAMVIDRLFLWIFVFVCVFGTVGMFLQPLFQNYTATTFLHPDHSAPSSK

heteromeric α7β2-nAChRs = biological target: T3, heteromeric α7β2-nAChRs (Rattus norvegicus, UniProt P12390+Q05941); format: cell-based
T3 construct: expressed in transfected cells; host or cells: Xenopus laevis oocytes injected with cRNA (pGEMHE vector)
T3 sequence (Q05941 23-502): as the sequence (Q05941 23-502) above
T3 sequence (P12390 25-500): as the sequence (P12390 25-500) above

[4] = system: hippocampal slices prepared from 3×Tg-AD mice; assay: CCh-induced network synchronization, field recordings in CA1 of hippocampal slices from 3×Tg-AD mice; format: cell-based, mouse; details: 3×Tg mice (10 month-old) compared to age-matched WT mice
α7−/− slices = assay: CCh-induced network synchronization, field potential recordings in hippocampal CA1 slices from α7−/− mice; format: cell-based, mouse; details: 50 μM, mice 6 months old
Source text: (§1) Comparing CCh-induced network synchronization in the hippocampal CA1 slices from WT and α7−/− mice (6 months old) using field potential recordings allowed testing of whether α7-nAChRs contribute to network synchronization and seizure susceptibility.

hippocampal CA1 slices = assay: CCh-induced network synchronization, field potential recordings in hippocampal CA1 slices from WT mice; format: cell-based, mouse; details: 50 μM bath-perfusion, mice 6 months old
Source text: as §1

MS/DB neurons = assay: Current-clamp recording of spontaneous action potential firing in dissociated MS/DB neurons; format: cell-based, rat; details: 1 μM
neurons from α7−/− mice = assay: Neuronal excitability after chronic Aβ in cultured hippocampal neurons from α7−/− mice; format: cell-based, mouse; details: chronic exposure
Source text: To further investigate whether pharmacological block of α7-nAChR eliminated the expression of neuronal hyperexcitation after chronic Aβ exposure. […] Comparing cultured neurons from WT and α7−/− mice could further establish if α7-nAChRs play a role in the induction of Aβ-induced neuronal hyperexcitation by comparing cultured neurons from WT and α7−/− mice.

[5] = system: cultured hippocampal pyramidal neurons; assay: Patch-clamp recording of neuronal excitability in cultured hippocampal neurons after chronic Aβ; format: cell-based, mouse; details: for neuronal excitability (spontaneous bursting AP firing, input-output curve): chronic exposure, treated vs untreated neurons
GABAA receptors = assay: GABA-induced currents in rat MS/DB cholinergic neurons; format: cell-based; details: 1 nM peptide; 0.1 mM GABA
[6] = biological target: T4, α7β2-nAChRs on MS/DB cholinergic neurons (Mus musculus, UniProt P49582+Q9ERK7); assay: Choline-induced currents in MS/DB neurons from wild-type mice; format: cell-based; details: 1 nM
T4 construct: Compared to MS/DB neurons from WT mice; endogenous in cells; host or cells: acutely dissociated MS/DB neurons of wild-type C57/Bl6 mice
T4 sequence (P49582 23-502): as the sequence (Q05941 23-502) above, with A402T counted along it
T4 sequence (Q9ERK7 26-501): as the sequence (P12390 25-500) above, with A350T, V371M, R379Q, T383A, P387L, V391M, V449I, P468S counted along it

[7] = system: cultured mouse hippocampal neurons; assay: Aβ-induced degeneration of cultured hippocampal neurons (DAPI staining, LDH levels); format: cell-based
[8] = system: α7−/− hippocampal neurons; assay: Aβ toxicity in α7−/− hippocampal neurons; format: cell-based, mouse; details: α7−/− compared to WT hippocampal neurons
[9] = system: ionotropic glutamate receptors; assay: Glutamate-induced currents in rat MS/DB cholinergic neurons; format: cell-based; details: 1 nM peptide; 1 mM glutamate
[10] = chronic Aβ, neurons from WT mice

T1 sequence (P49582 23-502): as the sequence (Q05941 23-502) above, with A402T counted along it

## CO[C@H]1CC=C2CCN3CCC4=C(CC(=O)OC4)[C@]23C1 [DHβE, dihydro-β-erythroidine]
[1]; MS/DB neurons from β2 knockouts compared with wild-type
  antagonist sensitivity of choline-induced currents: lower sensitivity
[2]; 10 mM choline-induced currents, VTA neurons
  Hill coefficient of concentration-inhibition curve: 0.3
[2]; 10 mM choline, VTA neurons, n=7, read-out: IC50 for inhibition of choline-induced currents
  IC50: > 100 µM
[3]; 10 mM choline-induced currents, MS/DB neurons, n=8
  Hill coefficient of concentration-inhibition curve: 0.9
[3]; 10 mM choline, MS/DB neurons, n=8, read-out: IC50 for inhibition of choline-induced currents
  IC50: 0.17 µM
[3]; printed as less potent in MS/BD than in VTA neurons
  potency difference as inhibitor of choline-induced current, MS/DB vs VTA neurons: ~500 fold
Heteromeric α7β2-nAChRs; 10 mM choline-induced currents in oocytes
  sensitivity to functional blockade, α7β2-nAChR compared with homomeric α7-nAChR: more sensitive

## oligomeric Aβ1-42: Aβ1-42 reconstituted in distilled water, predominantly oligomeric form
[3]
  suppression of choline-induced responses by peptide form: greatest suppression

## CNCC/C=C/c1cccnc1 [RJR-2403]
[2]
  whole-cell current response to agonist: mimicked
[3]
  whole-cell current response to agonist: insensitive

## C[N+](C)(C)CCOC(N)=O [CCh, carbachol]
[4]
  induced network synchronization: much stronger network synchronization
α7−/− slices
  induced network synchronization: failed to induce θ-oscillations
Hippocampal CA1 slices
  induced network synchronization: induced two types of network synchronizations

## C[C@@H]1O[C@H](C[N+](C)(C)C)C[C@H]1O [muscarine]
MS/DB neurons
  sensitivity of spontaneous action potential firing: insensitive

## Aβ1-42: amyloid beta peptides at positions 1-42 of the amyloid precursor protein (APP), purchased from rPeptide
[1]
  suppression of choline-induced currents: failed to suppress
Neurons from α7−/− mice
  induction of neuronal hyperexcitation: failed to evoke neuronal hyperexcitation
[5]; [10]
  sEPSC amplitude: but not amplitude
  sEPSC frequency: enhances sEPSC frequency
[5]
  neuronal excitability (spontaneous bursting AP firing, input-output curve): shifted leftwards
[2]
  effect on choline-induced currents: not sensitive
GABAA receptors
  inhibition of GABA-induced currents: insensitive
[6]
  suppression of choline-induced currents: did suppress
[3]
  effect on ACh-induced current: evident
[7]; 100 nM for 4, 7 and 10 days, primary cultured hippocampal neurons
  cytotoxicity by LDH levels: increased LDH levels
[7]; 100 nM over several days
  loss of cultured hippocampal neurons (DAPI staining): cell loss in an exposure-time-dependent manner
[8]
  toxic effects on hippocampal neurons: did not show toxic effects
Heteromeric α7β2-nAChRs
  sensitivity of choline-induced currents to peptide: demonstrated sensitivity
[9]
  inhibition of glutamate-induced currents: insensitive

## fibrillar Aβ: Aβ1-42 stock incubated at 37° C. for 48 h at pH 6.0, predominantly fibrillar form
[5]; 10 days treatment, n=11, untreated −62.8±3.3 mV
  mean resting membrane potential of treated neurons: −53.4±2.6 mV
[5]
  neuronal excitability (spontaneous bursting AP firing, input-output curve): spontaneous bursting AP firing was observed
[3]
  suppression of choline-induced responses by peptide form: weaker inhibitory effect

## monomeric Aβ1-42: Aβ1-42 reconstituted in DMSO, predominant monomeric form
[3]
  suppression of choline-induced responses by peptide form: failed to suppress

## CCN1C[C@]2(COC(=O)c3ccccc3N3C(=O)C[C@H](C)C3=O)CC[C@H](OC)[C@@]34[C@@H]5C[C@H]6[C@H](OC)[C@@H]5[C@](O)(C[C@@H]6OC)[C@@](O)([C@@H](OC)[C@H]23)[C@@H]14 [MLA, methyllycaconitine]
[5]; following a depolarizing pulse, MLA pretreated for 2 min, Aβ oligomers for 9 days
  effect on enhanced neuronal excitation after chronic Aβ exposure: reversibly eliminated
